Assay results: patent US20220401564A1 (DANA-FARBER CANCER INSTITUTE, INC., priority 2019, published 2022)
“Also recorded” adds a separate entry of the source.

Target: T1, HDAC6 (Homo sapiens, UniProt Q9UBN7)
T1 sequence (Q9UBN7 1-1215): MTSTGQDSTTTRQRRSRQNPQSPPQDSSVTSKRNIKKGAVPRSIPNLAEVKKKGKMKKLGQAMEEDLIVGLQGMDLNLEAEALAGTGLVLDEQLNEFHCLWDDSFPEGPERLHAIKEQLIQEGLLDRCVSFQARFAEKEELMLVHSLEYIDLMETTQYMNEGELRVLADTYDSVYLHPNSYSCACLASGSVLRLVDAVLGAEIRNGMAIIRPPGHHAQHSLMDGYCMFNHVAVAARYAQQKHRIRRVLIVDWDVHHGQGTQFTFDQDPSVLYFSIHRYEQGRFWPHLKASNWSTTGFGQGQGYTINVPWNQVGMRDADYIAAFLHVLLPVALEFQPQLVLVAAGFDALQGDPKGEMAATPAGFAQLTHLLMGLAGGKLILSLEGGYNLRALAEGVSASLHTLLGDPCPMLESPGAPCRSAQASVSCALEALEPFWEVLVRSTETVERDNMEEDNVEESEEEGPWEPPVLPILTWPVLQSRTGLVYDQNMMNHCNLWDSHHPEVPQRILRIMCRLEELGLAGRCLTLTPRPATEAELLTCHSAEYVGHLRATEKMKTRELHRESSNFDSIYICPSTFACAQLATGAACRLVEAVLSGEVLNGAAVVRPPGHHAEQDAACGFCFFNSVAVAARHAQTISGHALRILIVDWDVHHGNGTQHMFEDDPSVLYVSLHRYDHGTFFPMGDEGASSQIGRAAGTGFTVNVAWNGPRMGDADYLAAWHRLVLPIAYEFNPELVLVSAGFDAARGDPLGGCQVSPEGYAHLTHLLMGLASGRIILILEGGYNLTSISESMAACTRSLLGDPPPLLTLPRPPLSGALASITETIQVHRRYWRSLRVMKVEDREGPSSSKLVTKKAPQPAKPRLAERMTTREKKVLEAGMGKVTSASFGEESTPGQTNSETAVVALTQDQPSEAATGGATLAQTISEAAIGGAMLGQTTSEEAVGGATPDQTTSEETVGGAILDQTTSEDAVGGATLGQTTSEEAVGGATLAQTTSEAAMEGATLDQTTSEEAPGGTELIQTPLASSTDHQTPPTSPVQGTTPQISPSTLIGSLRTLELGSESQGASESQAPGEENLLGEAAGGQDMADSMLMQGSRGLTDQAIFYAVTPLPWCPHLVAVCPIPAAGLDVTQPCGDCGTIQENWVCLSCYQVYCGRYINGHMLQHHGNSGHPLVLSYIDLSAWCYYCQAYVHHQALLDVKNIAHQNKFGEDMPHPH
Assay: Change in cellular protein abundance (TMT proteomics) in Kelly cells
Assay type: cell-based
Set-up: relative change in relative protein abundance with treatment of Kelly cells; endogenous in cells; host or cells: Kelly cells
Conditions: FIG. 3A

Cc1ncsc1-c1ccc(CNC(=O)[C@@H]2C[C@@H](O)CN2C(=O)[C@@H](NC(=O)C2(F)CC2)C(C)(C)C)c(OCCCCCN(CCc2c[nH]c3ccccc23)Cc2ccc(/C=C/C(=O)NO)cc2)c1 [Compound 7, (2S,4R)—N-(2-((5-((2-(1H-indol-3-yl)ethyl)(4-((E)-3-(hydroxyamino)-3-oxoprop-1-en-1-yl)benzyl)amino)pentyl)oxy)-4-(4-methylthiazol-5-yl)benzyl)-1-((S)-2-(1-fluorocyclopropane-1-carboxamido)-3,3-dimethylbutanoyl)-4-hydroxypyrrolidine-2-carboxamide]
HDAC6 protein levels, relative protein abundance compared to DMSO control: promote degradation; also recorded: significant and selective reduction
